Where two headings read alike, the source gives them in different places.
Columns and labels:
[1] = target: T1, baculovirus-expressed ALK (Homo sapiens, UniProt Q9UM73); test: ALK Kinase Assay (ELISA-type, time-resolved fluorescence); type: biochemical
T1 construct: host or cells: baculovirus expression system
How it was run: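 Wells were coated with phospholipase C-γ at 10 μg/mL in Tris-buffered saline. Adding 30 ng/ml enzyme started the reaction, which ran at 37° C for 15 minutes before Eu-N1 PT66 antibody detection. Percent inhibition versus log10 concentration gave IC50 by variable-slope fit.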

[2] = target: T2, c-Met (cytoplasmic domain) (Homo sapiens, UniProt P08581); test: c-Met Kinase Assay (same methods as for ALK, with modifications); type: biochemical
T2 construct: 10 ng/mL c-Met (cytoplasmic domain, Invitrogen Corporation #PV3143); purchased Invitrogen Corporation PV3143
T2 sequence (P08581 956-1390 limits assumed): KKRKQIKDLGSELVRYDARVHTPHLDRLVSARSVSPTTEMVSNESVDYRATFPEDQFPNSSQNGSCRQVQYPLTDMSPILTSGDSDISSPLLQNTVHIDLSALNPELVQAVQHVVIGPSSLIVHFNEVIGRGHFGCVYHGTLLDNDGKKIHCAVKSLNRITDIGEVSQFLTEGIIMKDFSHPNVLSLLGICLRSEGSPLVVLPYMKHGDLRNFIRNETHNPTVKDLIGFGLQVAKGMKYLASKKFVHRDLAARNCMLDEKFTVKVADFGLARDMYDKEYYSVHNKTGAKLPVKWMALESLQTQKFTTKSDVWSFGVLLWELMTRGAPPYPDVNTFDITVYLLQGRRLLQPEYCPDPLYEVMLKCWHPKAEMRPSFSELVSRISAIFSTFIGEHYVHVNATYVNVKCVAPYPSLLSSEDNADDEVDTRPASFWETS
How it was run: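 IC50 values were fitted by variable-slope sigmoidal regression of percent inhibition against log compound concentration. Phosphorylation was read with Eu-N1 PT66 antibody after a 15 min, 37 °C reaction. The reaction was initiated with 10 ng/mL c-Met cytoplasmic domain on wells coated with 10 μg/mL PLC-γ in TBS.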

[3] = ALK kinase inhibition, 1 μM ATP, read-out: ALK Activity
[4] = c-Met kinase inhibition, 1 μM ATP, read-out: cMet Activity
[5] = 1 μM ATP (Km level), 30 ng/ml ALK, 37° C., 15 minutes, read-out: ALK Activity (ALK kinase inhibition, IC50 class)
[6] = 1 μM ATP (Km level), 10 ng/mL c-Met, read-out: cMet Activity (c-Met kinase inhibition, IC50 class)
[7] = ALK kinase inhibition, 1 μM ATP (Km level), read-out: ALK Activity
[8] = c-Met kinase inhibition, 1 μM ATP (Km level), read-out: cMet Activity

T1 sequence (Q9UM73 19-1620): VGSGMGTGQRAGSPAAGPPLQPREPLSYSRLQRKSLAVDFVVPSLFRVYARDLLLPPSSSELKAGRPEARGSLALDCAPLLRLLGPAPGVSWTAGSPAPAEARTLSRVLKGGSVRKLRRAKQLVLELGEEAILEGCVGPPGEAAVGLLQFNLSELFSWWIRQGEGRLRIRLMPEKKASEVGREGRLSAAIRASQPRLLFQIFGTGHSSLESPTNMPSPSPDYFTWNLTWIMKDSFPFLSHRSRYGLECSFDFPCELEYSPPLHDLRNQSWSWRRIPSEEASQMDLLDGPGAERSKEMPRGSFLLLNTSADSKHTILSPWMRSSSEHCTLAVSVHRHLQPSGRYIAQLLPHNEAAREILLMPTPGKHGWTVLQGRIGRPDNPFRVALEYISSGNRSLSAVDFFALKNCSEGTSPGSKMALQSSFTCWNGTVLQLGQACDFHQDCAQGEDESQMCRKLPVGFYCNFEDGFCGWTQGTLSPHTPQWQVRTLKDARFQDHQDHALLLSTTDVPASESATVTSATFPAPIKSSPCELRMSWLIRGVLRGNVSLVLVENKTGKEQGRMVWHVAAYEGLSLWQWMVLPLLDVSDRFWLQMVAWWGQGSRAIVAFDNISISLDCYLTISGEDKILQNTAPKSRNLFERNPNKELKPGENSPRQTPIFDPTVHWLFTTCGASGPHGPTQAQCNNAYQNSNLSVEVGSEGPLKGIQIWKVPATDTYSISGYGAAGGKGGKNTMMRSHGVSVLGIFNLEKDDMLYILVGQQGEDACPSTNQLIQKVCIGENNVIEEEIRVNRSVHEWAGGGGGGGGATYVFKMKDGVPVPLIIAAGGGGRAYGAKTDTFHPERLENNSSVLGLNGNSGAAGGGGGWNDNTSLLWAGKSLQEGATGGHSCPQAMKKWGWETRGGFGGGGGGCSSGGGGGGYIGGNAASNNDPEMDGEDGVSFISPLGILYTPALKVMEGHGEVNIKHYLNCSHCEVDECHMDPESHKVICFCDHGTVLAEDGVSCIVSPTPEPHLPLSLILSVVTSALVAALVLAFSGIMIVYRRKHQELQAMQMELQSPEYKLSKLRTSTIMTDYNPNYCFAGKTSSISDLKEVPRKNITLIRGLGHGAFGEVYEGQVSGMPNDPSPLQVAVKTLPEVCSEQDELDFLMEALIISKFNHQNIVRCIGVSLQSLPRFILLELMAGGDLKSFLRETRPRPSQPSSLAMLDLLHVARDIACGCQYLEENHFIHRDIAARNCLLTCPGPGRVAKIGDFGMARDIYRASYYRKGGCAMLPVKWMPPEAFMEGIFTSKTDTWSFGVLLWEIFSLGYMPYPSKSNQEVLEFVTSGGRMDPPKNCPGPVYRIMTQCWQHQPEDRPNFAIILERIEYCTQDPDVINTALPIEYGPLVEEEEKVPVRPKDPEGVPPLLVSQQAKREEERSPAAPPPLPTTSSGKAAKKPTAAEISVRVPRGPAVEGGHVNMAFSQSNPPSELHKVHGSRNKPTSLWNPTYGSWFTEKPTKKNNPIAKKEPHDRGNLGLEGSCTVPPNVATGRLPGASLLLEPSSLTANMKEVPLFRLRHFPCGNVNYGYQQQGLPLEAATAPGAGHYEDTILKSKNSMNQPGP

CC1(C)CCCNc2cc(Nc3ncc(Cl)c(N[C@H]4[C@@H](C(N)=O)[C@@H]5C=C[C@H]4C5)n3)ccc21 [Example 1613, (1S,2S,3R,4R)-3-[5-Chloro-2-(5,5-dimethyl-2,3,4,5-tetrahydro-1H-benzo[b]azepin-8-ylamino)-pyrimidin-4-ylamino]-bicyclo[2.2.1]hept-5-ene-2-carboxylic acid amide]
IC50 [1, 3]: < 0.1 µM
IC50 [2, 4]: 0.1 to 1 µM

CNC(=O)c1cccc(F)c1Nc1nc(Nc2ccc3c(c2)N(CCN2CCCC2)CCCC3(C)C)ncc1Cl [Example 1605, 2-{5-Chloro-2-[5,5-dimethyl-1-(2-pyrrolidin-1-yl-ethyl)-2,3,4,5-tetrahydro-1H-benzo[b]azepin-8-ylamino]-pyrimidin-4-ylamino}-3-fluoro-N-methyl-benzamide]
IC50 [1, 3]: < 0.1 µM
IC50 [2, 4]: 0.1 to 1 µM

COc1cc2c(cc1Nc1ncc(Cl)c(Nc3ccccc3S(C)(=O)=O)n1)CCN(CCS(C)(=O)=O)CC2 [Example 1148, 5-Chloro-N*2*-[3-(2-methanesulfonyl-ethyl)-8-methoxy-2,3,4,5-tetrahydro-1H-benzo[d]azepin-7-yl]-N*4*-(2-methanesulfonyl-phenyl)-pyrimidine-2,4-diamine]
IC50 [1, 5]: < 0.1 µM
IC50 [2, 6]: 1 to 10 µM

COc1ccccc1Nc1nc(Nc2ccc3c(c2)CCC(NCC(F)(F)F)CC3)ncc1Cl (stereo not shown) [Example 658, 5-Chloro-N*4*-(2-methoxy-phenyl)-N*2*-[7-(2,2,2-trifluoro-ethylamino)-6,7,8,9-tetrahydro-5H-benzocyclohepten-2-yl]-pyrimidine-2,4-diamine]
IC50 ([1]; 1 μM ATP (Km level), read-out: ALK Activity (ALK Kinase Inhibition, IC50)): 0.1 to 1 µM
IC50 ([2]; 1 μM ATP (Km level), read-out: cMet Activity (c-Met Kinase Inhibition, IC50)): > 10 µM

CNC(=O)c1cccc(F)c1Nc1nc(Nc2ccc3c(c2)-c2nccn2CCC3)ncc1Cl [Example 1844, 2-[5-Chloro-2-(5,6-dihydro-4H-1,3a-diaza-benzo[e]azulen-9-ylamino)-pyrimidin-4-ylamino]-3-fluoro-N-methyl-benzamide]
IC50 [1, 3]: < 0.1 µM
IC50 [2, 4]: < 0.1 µM

CNC(=O)c1ccccc1Nc1nc(Nc2ccc3c(c2)N(C)CCCO3)ncc1Cl [Example 1708, 2-[5-Chloro-2-(9-methyl-6,7,8,9-tetrahydro-5-oxa-9-aza-benzocyclohepten-2-ylamino)-pyrimidin-4-ylamino]-N-methyl-benzamide]
IC50 [1, 3]: < 0.1 µM
IC50 [2, 4]: < 0.1 µM

CNC(=O)c1ccsc1Nc1nc(Nc2ccc3c(c2)NC(=O)CCC3)ncc1Cl [Example 1485, 2-[5-Chloro-2-(2-oxo-2,3,4,5-tetrahydro-1H-benzo[b]azepin-8-ylamino)-pyrimidin-4-ylamino]-thiophene-3-carboxylic acid methylamide]
IC50 [1, 3]: 1 to 10 µM
IC50 [2, 4]: 0.1 to 1 µM

CNC(=O)CN1CCc2cc(Nc3ncc(Cl)c(Nc4cc(Cl)ccc4OC)n3)c(OC)cc2CC1 [Example 1118, 2-{7-[5-Chloro-4-(5-chloro-2-methoxy-phenylamino)-pyrimidin-2-ylamino]-8-methoxy-1,2,4,5-tetrahydro-benzo[d]azepin-3-yl}-N-methyl-acetamide]
IC50 [1, 5]: < 0.1 µM
IC50 [2, 6]: > 10 µM

COc1cc(N2CCOCC2)ccc1Nc1nc(Nc2ccc3c(c2)CCN(C[C@@H](O)C(F)(F)F)CC3)ncc1Cl [Example 333, (R)-3-{7-[5-Chloro-4-(2-methoxy-4-morpholin-4-yl-phenylamino)-pyrimidin-2-ylamino]-1,2,4,5-tetrahydro-benzo[d]azepin-3-yl}-1,1,1-trifluoro-propan-2-ol]
IC50 [1, 7]: < 0.1 µM
IC50 [2, 8]: 1 to 10 µM

CNC(=O)c1ccccc1Nc1nc(Nc2ccc3c(c2)CCN(S(C)(=O)=O)CC3)ncc1Cl [Example 42, 2-[5-Chloro-2-(3-methanesulfonyl-2,3,4,5-tetrahydro-1H-benzo[d]azepin-7-ylamino)-pyrimidin-4-ylamino]-N-methyl-benzamide]
IC50 [1, 7]: < 0.1 µM
IC50 [2, 8]: < 0.1 µM

CCNC(=O)c1cccc(F)c1Nc1nc(Nc2ccc3c(c2)CCN(CC(=O)N(C)C)CC3)ncc1Cl [Example 1367, 2-[5-Chloro-2-(3-dimethylcarbamoylmethyl-2,3,4,5-tetrahydro-1H-benzo[d]azepin-7-ylamino)-pyrimidin-4-ylamino]-N-ethyl-3-fluoro-benzamide]
IC50 [1, 5]: < 0.1 µM
IC50 [2, 6]: < 0.1 µM
